Reference: PMC4999848 (Toxins, 2016)
Values joined by “and” are separate entries in the source; they are usually repeats but may differ in a detail not shown here. Equal values may be shown once.

Legend:
T84 cells = experiment: Deacetylation of 3/15ADON by T84 cells; assay type: in vitro ADME, human; conditions: T84, 37 °C, substrate 100 μM
Description: (§1) A498, Caco-2, T84 and HepG2 cells were used as models of human renal, small intestinal, colonic and hepatic cells, respectively. Cells were routinely grown in culture media (Dulbecco’s Modified Eagle Medium (DMEM), DMEM:F12 mixture and Minimum Essential Media (MEM) for A498/Caco-2, T84 and HepG2 cells, respectively) supplemented with 10% fetal calf serum and 1% antibiotics (streptomycin–penicillin solution). Cells were grown in 25 cm^2 ventilated flask maintained at 37 °C in a 5% CO2 incubator. Cells were routinely passed using trypsin-EDTA solution. For deacetylation experiments, cells were seeded onto 6-well plates at an initial density of 200,000 cells/cm^2. HepG2 and A498 were used 3–4 days post-seeding when confluence was reached. Caco-2 and T84 cells were let to differentiate for 10–14 days post-seeding before being used. In all cases, cells were washed three times with sterile phosphate buffer saline PBS^++ (PBS containing 100 mg/L of calcium and magnesium salts) before deacetylation assay.
Stock solutions of DON, 3ADON and 15ADON at 2 mg/mL were prepared in absolute ethanol and stored at −20 °C. […] In all cases, aliquots of the reaction solution were collected immediately (i.e., “time zero” sample) or after the indicated time period at 37 °C and analyzed by HPLC. […]

HepG2 cells = experiment: Deacetylation of 3/15ADON by HepG2 cells; assay type: in vitro ADME, human; conditions: for Disappearance of 3/15ADON, specific activity: HepG2, 37 °C, substrate 100 μM; for % deacetylated: HepG2, 6 h incubation, 100 μM
Description: as §1
Stock solutions of DON, 3ADON and 15ADON at 2 mg/mL were prepared in absolute ethanol and stored at −20 °C. For deacetylation assay, 3- or 15ADON were incubated with cells, explants, bacteria or digestive enzymes after being diluted in PBS^++ at a final concentration of 100 μM. PBS^++ solution containing only ethanol (at 1.5% final concentration) or DON (at 100 μM) were used in parallel as negative and positive control, respectively. For cells and explants, deacetylation assay take place in 6-well plates, wells being filled with 2 mL of PBS^++ containing either ethanol, DON, 3- or 15ADON. For fecal bacteria and digestive enzyme assay, deacetylation assay was conducted in 2 mL Eppendorf tubes filled with 1.5 mL of PBS^++ containing either ethanol, DON, 3- or 15ADON. In vitro intestinal digestion by luminal enzymes was performed using porcine enzymes from Sigma-Aldrich and physiological conditions. Briefly, 3- or 15ADON were incubated with pepsin (at 1.6 mg/mL corresponding to 900 U/mL), trypsin (at 0.35 mg/mL corresponding to 6000 U/mL), pancreatic lipase (at 0.75 mg/mL corresponding to 18 U/mL) or pancreatin (at 1.23 mg/mL, lipase activity >10 U/mL, protease activity >100 U/mL, amylase activity >100 U/mL). Except for pepsin for which the digestion was conducted in HCl solution at 10 mM (pH 2.3), in vitro digestion was performed in PBS^++ (pH 7.4). Finally, deacetylation assay was also performed with commercial pooled S9 fractions from human liver, small intestine and kidneys as well as with pure recombinant human CES1 and CES2. […] In all cases, aliquots of the reaction solution were collected immediately (i.e., “time zero” sample) or after the indicated time period at 37 °C and analyzed by HPLC. […]

[1] = Deacetylation of 3/15ADON by liver S9 fraction; assay type: in vitro ADME, human
Description: Stock solutions of DON, 3ADON and 15ADON at 2 mg/mL were prepared in absolute ethanol and stored at −20 °C. For deacetylation assay, 3- or 15ADON were incubated with cells, explants, bacteria or digestive enzymes after being diluted in PBS^++ at a final concentration of 100 μM. PBS^++ solution containing only ethanol (at 1.5% final concentration) or DON (at 100 μM) were used in parallel as negative and positive control, respectively. For cells and explants, deacetylation assay take place in 6-well plates, wells being filled with 2 mL of PBS^++ containing either ethanol, DON, 3- or 15ADON. For fecal bacteria and digestive enzyme assay, deacetylation assay was conducted in 2 mL Eppendorf tubes filled with 1.5 mL of PBS^++ containing either ethanol, DON, 3- or 15ADON. In vitro intestinal digestion by luminal enzymes was performed using porcine enzymes from Sigma-Aldrich and physiological conditions. Briefly, 3- or 15ADON were incubated with pepsin (at 1.6 mg/mL corresponding to 900 U/mL), trypsin (at 0.35 mg/mL corresponding to 6000 U/mL), pancreatic lipase (at 0.75 mg/mL corresponding to 18 U/mL) or pancreatin (at 1.23 mg/mL, lipase activity >10 U/mL, protease activity >100 U/mL, amylase activity >100 U/mL). Except for pepsin for which the digestion was conducted in HCl solution at 10 mM (pH 2.3), in vitro digestion was performed in PBS^++ (pH 7.4). Finally, deacetylation assay was also performed with commercial pooled S9 fractions from human liver, small intestine and kidneys as well as with pure recombinant human CES1 and CES2. S9 fractions and CES1/2 were used at 0.1 mg/mL and 5 μg/mL (corresponding to CES activity >20 U/mL), respectively. In all cases, aliquots of the reaction solution were collected immediately (i.e., “time zero” sample) or after the indicated time period at 37 °C and analyzed by HPLC. […] In all cases, the experiments were conducted in triplicate (n = 3).
Deacetylation was monitoring both in term of disappearance of 3- or 15ADON and formation of DON. Measurement of DON, 3ADON and 15ADON concentrations was performed by reversed-phase HPLC using Waters Alliance System equipped with a Waters 2690 XE separation module and a Waters 996 photodiode array detector (Waters, Saint Quentin Falavier, France). The separation was achieved by mean of a LiChroCart column (125 mm × 4 mm) packed with 5 μm RP-18 Purospher gel (Merck, Darmstadt, Germany) and equipped with a LiChroCart precolumn (4 mm × 4 mm) packed with the same material (Merck). The precolumn and column were placed in room temperature. The elution procedure was carried out at 0.7 mL·min^−1 by a methanol–water solvent, using the following conditions: 40% methanol during 2 min followed by an increase in methanol to 50% at 2.1 min. The detection wavelength was set at 237 nm allowing the best signal/baseline ratio for simultaneous detection of the three DON forms in the incubation mediums. Under these conditions, DON and 3/15ADON were clearly separated, the retention time being around 2.7 min and 5.7 min, for DON and 3/15ADON, respectively (Figure 9). Quantification was based on calibration with the corresponding standard using Millinium Software (Waters, Saint Quentin Falavier, France).

[2] = tested on: secreted digestive enzymes and fecal bacteria; experiment: Deacetylation of 3/15ADON by secreted digestive enzymes and fecal bacteria (taken together); assay type: in vitro ADME; conditions: digestive enzymes plus fecal bacteria
Description: The whole procedure involving fecal bacteria (including the use of fecal bacteria for the deacetylation assay) was performed in an anaerobic cabinet (Coy Laboratory Products, Grass Lake, MI, USA). Human fecal bacteria were isolated from three volunteers (men) working in the department, 40–50 years of age. Stools were collected fresh in a sterile container and were immediately introduced into the anaerobic cabinet. Feces samples were taken by pushing a cut-off disposal 1 mL pipette tip into the inner part of the stools. Samples were then mechanically suspended in 9 mL of degassed PBS^++. Homogenates were allowed to decant for ten minutes to eliminate insoluble matter, and supernatants (1 mL aliquots) were transferred to sterile Eppendorf tubes and used for deacetylation assay.
Stock solutions of DON, 3ADON and 15ADON at 2 mg/mL were prepared in absolute ethanol and stored at −20 °C. For deacetylation assay, 3- or 15ADON were incubated with cells, explants, bacteria or digestive enzymes after being diluted in PBS^++ at a final concentration of 100 μM. PBS^++ solution containing only ethanol (at 1.5% final concentration) or DON (at 100 μM) were used in parallel as negative and positive control, respectively. […] In all cases, aliquots of the reaction solution were collected immediately (i.e., “time zero” sample) or after the indicated time period at 37 °C and analyzed by HPLC. […]

[3] = S9 Liver + Benzil 100 μM (Table 1)
[4] = S9 Liver, without benzil (Table 1)
[5] = S9 liver 0.1 mg/mL, 37 °C, substrate 100 μM (Table 3)

Compound	Disappearance of 3/15ADON, specific activity (T84 cells)	Disappearance of 3/15ADON, specific activity (HepG2 cells)	% deacetylated (HepG2 cells)	Disappearance of 3/15ADON, specific activity [1, 3] [pmol/min/mg]	Disappearance of 3/15ADON, specific activity [1, 4] [pmol/min/mg]	Disappearance of 3/15ADON, specific activity [1, 5]	Contribution to total deacetylation: intestinal luminal events [2] [%]
CC(=O)O[C@@H]1C[C@]2(C)[C@@]3(CO)[C@H](O)C(=O)C(C)=C[C@H]3O[C@H]1[C@@]21CO1 [3ADON, 3-acetyldeoxynivalenol]	80 pmol/min/mg and 80 ± 24 pmol/min/mg	902 pmol/min/mg and 902 ± 78 pmol/min/mg	52.1% ± 4.5%	1583 ± 39	1729 ± 27	1791 pmol/min/mg and 1791 ± 29 pmol/min/mg	16
CC(=O)OC[C@]12[C@H](O)C(=O)C(C)=C[C@H]1O[C@@H]1[C@H](O)C[C@@]2(C)[C@]12CO2 [15ADON, 15-acetyldeoxynivalenol]	98 pmol/min/mg and 98 ± 29 pmol/min/mg	295 pmol/min/mg and 295 ± 41 pmol/min/mg	16.8% ± 2.4%	125 ± 15	166 ± 3.5	208 pmol/min/mg and 208 ± 41 pmol/min/mg	34
